Results reported in patent publication US20060182728A1, “Methods for treating pervasive development disorders” (priority 1999, published 2006).

How the values were obtained:
[1] = system: children diagnosed as having autism; assay: Fecal Chymotrypsin Test after secretin infusion in autistic children; format: in vivo, human
Procedure: In this experiment, 16 children diagnosed as having autism were administered the following Fecal Chymotrypsin Test in accordance with an embodiment of the invention. First, approximately 2 grams of stool were collected from each child and placed in a sterile container (although it is to be understood that any quantity of stool may be collected, as 2 grams of stool is not a required amount). Each stool sample was then analyzed using, e.g., an enzymatic photospectrometry analysis as is known by those skilled in the art, to determine the level of fecal chymotrypsin in the stool. Although the enzymatic photospectrophotometry process is preferred, any suitable conventional method may be used for measuring the fecal chymotrypsin levels. This measured chymotrypsin levels of the 16 autistic children are illustrated in FIG. 13.
After determining the chymotrypsin levels of the stools, each of these levels were compared with threshold chymotrypsin levels to determine if the child was likely to benefit from secretin administration. By way of example, with the fecal chymotrypsin tests of the stool samples being performed at 30EC, normal levels of chymotrypsin are deemed to lie above 8.4 U/gram, whereas pathologically abnormal levels are deemed to lie below 4.2 U/gram. In addition, chymotrypsin levels between 8.4 U/gram and 4.2 U/gram are considered equivocal, and further testing of the individual's fecal chymotrypsin levels over a period of time should be performed.
For each of the 16 autistic children tested, a preferred secretin infusion process according to the present invention was performed involving the administering of 1 U/kg of body weight of Secretin-Ferring for a period of nine months at intervals of approximately 6 weeks. […]
In this experiment, 37 autistic children with abnormal fecal chymotrypsin levels were administered secretin over the course of 6 months using the secretin infusion process described above. Their fecal chymotrypsin (FC) levels were measured weekly using the fecal chymotrypsin test described above.

[2] = system: children diagnosed with ADHD; assay: Required Ritalin level of ADHD children administered secretin; format: in vivo, human; conditions: each of 5 ADHD children with pathologic FC level; 6 months post-secretin vs pre-secretin
Procedure: A preferred secretin infusion process includes the initial step of prepping an arm of the candidate child with an IV injection of saline. A test dose of 1 U of Secretin-Ferring is then administered to the child. Approximately one minute after infusion, the child is examined for signs of allergic reaction including rash, increased heart rate, and increase of blood pressure. […] Subsequently, each child receives a 1 U/kg of body weight infusion of Secretin-Ferring approximately every 6 weeks for 9 months. It is to be understood that any commercially available form of secretin may be used.
In this experiment, the fecal chymotrypsin levels of 34 children diagnosed with ADHD were obtained using the fecal chymotrypsin test described above in Experiment 1, the levels of which are illustrated in FIG. 16. As shown, 32 children out of 34 children tested were determined to have sub-normal fecal chymotrypsin levels.
To determine the effect of secretin administration on ADHD children, 5 of the 24 children having a pathologic fecal chymotrypsin level were administered secretin using the secretin infusion process described above.

[3] = 6 Months Post-Secretin Administration, of 37 children, 0 pre-secretin

## secretin
[1]; [3]
  # Autistic Children w/Equivocal FC levels: 2
  # Autistic Children w/normal FC levels: 34
[1]; each of 16 autistic children, approximately one week after first secretin infusion, 1 U/kg IV
  fecal chymotrypsin level post-secretin administration compared with pre-secretin: increased
[2]
  level of Ritalin (mg) needed to remain at the same functional level: significant changes
